Reference: publication PMC4897634, “Design of an α-helical antimicrobial peptide with improved cell-selective and potent anti-biofilm activity” (Scientific Reports, 2016)
In brackets after ≈: the same amount, converted by molar mass. Several values for one entry are separate records, joined by “and”; a condition that tells them apart may be missing. Identical values can stand only once. Where no end group is shown, it is not given here.

Legend:
[1] = tested on: Klebsiella pneumonia (1.1736); assay: Antimicrobial activity, broth microdilution MIC; format: cell-based; details: modified CLSI broth microdilution, LB medium, 1 × 10^6 CFU/ml, 37 °C, 18 to 20 hours, absorbance 600 nm
Experimental: (§1) The antibacterial activities of the peptides against three Gram-negative bacteria and three Gram-positive bacteria strains were measured using a modified version of the Clinical Laboratory and Standards Institute (CLSI) broth microdilution method as described previously. Three Gram-negative bacteria, Escherichia coli (1.8732), Pseudomonas aeruginosa (1.2421), and Klebsiella pneumonia (1.1736), and three Gram-positive bacteria, Staphylococcus aureus (1.8721), Staphylococcus epidermidis (1.4260), and Bacillus subtilis (1.3376), were purchased from the China General Microbiological Culture Collection Centre (CGMCC). Briefly, bacteria were grown in liquid LB medium (tryptone, 10 g/L, yeast extract, 5 g/L and NaCl, 10 g/L) at 37 °C to mid-log phase, and the bacteria were diluted to 1 × 10^6 colony-forming units (CFU)/ml. The peptides were serially diluted with phosphate-buffered saline (PBS), and 50 μl diluted peptides were added to 50 μl of the bacterial suspension in 96-well plate (Corning Inc., Lowell, MA, USA). After incubation at 37 °C for 18 to 20 hours, the absorbance of each well was recorded using a multi-well microplate reader (SpectraMax M5; Molecular Devices, Sunnyvale, CA, USA) at 600 nm. The lowest concentration at which the peptide inhibited complete growth of the bacteria was taken as the minimal inhibitory concentration (MIC).

[2] = tested on: Bacillus subtilis (1.3376); assay: Antimicrobial activity, broth microdilution MIC; format: cell-based; details: modified CLSI broth microdilution, LB medium, 1 × 10^6 CFU/ml, 37 °C, 18 to 20 hours, absorbance 600 nm
Experimental: as §1

[3] = tested on: Pseudomonas aeruginosa (1.2421); assay: Antimicrobial activity, broth microdilution MIC; format: cell-based; details: modified CLSI broth microdilution, LB medium, 1 × 10^6 CFU/ml, 37 °C, 18 to 20 hours, absorbance 600 nm
Experimental: as §1

[4] = tested on: Staphylococcus epidermidis (1.4260); assay: Antimicrobial activity, broth microdilution MIC; format: cell-based; details: modified CLSI broth microdilution, LB medium, 1 × 10^6 CFU/ml, 37 °C, 18 to 20 hours, absorbance 600 nm
Experimental: as §1

[5] = tested on: Escherichia coli (1.8732); assay: Antimicrobial activity, broth microdilution MIC; format: cell-based; details: modified CLSI broth microdilution, LB medium, 1 × 10^6 CFU/ml, 37 °C, 18 to 20 hours, absorbance 600 nm
Experimental: as §1

[6] = tested on: Staphylococcus aureus (1.8721); assay: Antimicrobial activity, broth microdilution MIC; format: cell-based; details: modified CLSI broth microdilution, LB medium, 1 × 10^6 CFU/ml, 37 °C, 18 to 20 hours, absorbance 600 nm
Experimental: as §1

Gram-negative bacteria = format: cell-based, E. coli, P. aeruginosa, K. pneumoniae; details: for TI, therapeutic index: ratio of MHC to GM
Experimental: (§2) The antimicrobial activities of the peptides, indicated by the minimum inhibitory concentrations (MIC), were determined against a range of Gram-negative (Table 3) and Gram-positive bacterial strains (Table 4). The geometric mean of MIC values (GM) from the three strains was calculated to provide an overall evaluation of antimicrobial activity.
(§3) The therapeutic index (TI) is defined as the ratio of the minimum haemolytic concentration (MHC) of peptides to the GM of peptides, and this value was used to evaluate cell selectivity of peptides towards the negatively charged region of bacterial cell membranes over the zwitterionic mammalian cell membranes.
as §1

[7] = tested on: L929 mouse fibroblast cells; assay: Cytotoxicity, MTT assay; format: cell-based; details: 50 μM peptide, 1 hour
Experimental: The toxicity of the peptides against L929 mouse fibroblast cells was assessed by a standard MTT assay. L929 mouse fibroblast cells from ATCC (Manassas, VA, USA) were maintained in our laboratory. L929 cells were cultured in RPMI 1640 supplemented with 10% (v/v) FBS, 2 mM L-glutamine, 100 U/ml penicillin and […] streptomycin and maintained in a humidified incubator with 5% CO2 at 37 °C. L929 cells (5 × 10^3cells/well) were seeded in 96-well plates (Corning Inc., Lowell, MA, USA) and incubated overnight. Diluted peptides were added to L929 cells and incubated for 1 hour. Then, 20 μl of MTT (5 mg/ml) solution was added and incubated for 4 hours. The medium was removed, and 150 μl of DMSO was added to each well to dissolve the formazan crystals. The absorbance was measured at 490 nm on a microplate reader (SpectraMax M5; Molecular Devices, Sunnyvale, CA, USA). Cell viabilities were calculated by using the equation (3): […]

human erythrocytes = assay: Haemolytic activity; format: cell-based; details: 37 °C, 30 min; for haemolysis rate / haemolytic activity: human erythrocytes, relative to 0.1% Triton X-100; for MHC, minimum haemolytic concentration: concentration causing 10% haemolysis of hRBC, 200 μM used when no haemolysis detectable at 100 μM; for haemolytic activity: 25 μM peptide
Experimental: Haemolytic activity of the peptides was assayed by a standard procedure with slight modification. Fresh human erythrocytes were washed three times and resuspended at 1.25% haematocrit in PBS. Forty microlitres PBS-diluted peptide solution was added to a V-bottom 96-well plate (Corning Inc., Lowell, MA, USA), and 160 μl of erythrocytes was added. After incubation at 37 °C for 30 min, the samples were centrifuged, and the absorbance of the supernatant was measured at 450 nm using a multi-well microplate reader (SpectraMax M5; Molecular Devices, Sunnyvale, CA, USA) and compared with the 100% haemolysis caused by 0.1% Triton X-100. The percentage of haemolysis was calculated according to the equation (2): […]

Gram-positive bacteria = format: cell-based, S. aureus, S. epidermidis, B. subtilis; details: for TI, therapeutic index: ratio of MHC to GM
Experimental: as §2, §3, §1

Row | Compound | MIC K. pneumoniae [1] | MIC B. subtilis [2] | MIC P. aeruginosa [3] | MIC S. epidermidis [4] | MIC E. coli [5] | MIC S. aureus [6] | TI, therapeutic index (Gram-negative bacteria; Gram-negative bacteria) | viability of treated L929 cells [7] | haemolysis rate (human erythrocytes; 100 μM peptide) | MHC, minimum haemolytic concentration (human erythrocytes) | TI, therapeutic index (Gram-positive bacteria; Gram-positive bacteria) | haemolytic activity (human erythrocytes) | GM, geometric mean of MIC (Gram-negative bacteria; Gram-negative strains E. coli, P. aeruginosa, K. pneumoniae) | Fold (Gram-negative bacteria; Table S2, TI compared with melittin, Gram-negative bacteria) | GM, geometric mean of MIC (Gram-positive bacteria; Gram-positive strains S. aureus, S. epidermidis, B. subtilis) | Fold (Gram-positive bacteria; Table S3, TI compared with melittin, Gram-positive bacteria) | haemolysis rate (human erythrocytes; 3.13 μM peptide)
1 | AIGSILGALAKGLPTLRSWIKNR-NH2 [A(I17R)] | 25 µM | 3.13 µM | 12.5 µM | 6.25 µM | 12.5 µM | 25 µM | 1.59 | 6.6% | 74% | 25 µM | 3.17 | – | – | – | – | – | –
2 | RIGSILGALAKGLPTLKSWIKNR-NH2 [A(A1R, I17K)] | 25 µM | 6.25 µM | 12.5 µM | 6.25 µM | 25 µM | 100 µM | 5.04 | 6.3% | – | 100 µM | 6.35 | – | – | – | – | – | –
3 | AIGSILGALAKGLPTLKSWIKNR-NH2 [A(I17K)] | 50 µM | 6.25 µM | 25 µM | 12.5 µM | 25 µM | 50 µM | 1.59 | 7.9% | 33% | 50 µM | 3.17 | 6.4% | – | – | – | – | –
4 | RIGSILGRLAKGLPTLRSWIKNR-NH2 [A(A1R, A8R, I17R)] | 12.5 µM | 12.5 µM | 12.5 µM | 3.13 µM | 12.5 µM | 100 µM | 8 | – | – | 100 µM | 6.35 | – | – | – | – | – | –
5 | AIGSILGRLAKGLPTLKSWIKNR-NH2 [A(A8R, I17K)] | 25 µM | 12.5 µM | 25 µM | 6.25 µM | 25 µM | 100 µM | 4 | 21.1% | – | 100 µM | 5.04 | – | – | – | – | – | –
6 | CC[C@H](C)[C@H](NC(=O)CN)C(=O)NCC(=O)N[C@@H](C)C(=O)N[C@H](C(=O)N[C@@H](CC(C)C)C(=O)N[C@@H](CCCCN)C(=O)N[C@H](C(=O)N[C@@H](CC(C)C)C(=O)N[C@H](C(=O)N[C@H](C(=O)NCC(=O)N[C@@H](CC(C)C)C(=O)N1CCC[C@H]1C(=O)N[C@@H](C)C(=O)N[C@@H](CC(C)C)C(=O)N[C@H](C(=O)N[C@@H](CO)C(=O)N[C@@H](Cc1c[nH]c2ccccc12)C(=O)N[C@H](C(=O)N[C@@H](CCCCN)C(=O)N[C@@H](CCCNC(=N)N)C(=O)N[C@@H](CCCCN)C(=O)N[C@@H](CCCNC(=N)N)C(=O)N[C@@H](CCC(N)=O)C(=O)N[C@@H](CCC(N)=O)C(N)=O)[C@@H](C)CC)[C@@H](C)CC)[C@@H](C)O)[C@@H](C)O)C(C)C)C(C)C [Melittin, reference compound] | 6.25 µM (≈ 17.8 µg/mL) | – | – | – | – | – | – | – | – | 0.78 µM | – | – | – | – | – | – | –
7 | M(G1R, V8R, I17R): melittin analogue with residues at position 1, 8 and 17 replaced by positively charged residues (RIGAVLKRLTTGLPALRSWIKRKRQQ; not fully specified; ends and bridges not checked; UniProt P01501 44-69, looked up, variant G1R V8R I17R) | 12.5 µM | 3.125 µM | 25 µM | 6.25 µM | 25 µM | 100 µM | 10.1 | – | – | 200 µM | 16 | – | 19.8 µM | 101 | 12.5 µM | 64 | –
8 | RIGVLLARLPKLFSLFKLMGKKV-NH2 [RV-23, reference compound] | 6.25 µM | 3.125 µM and 3.13 µM | 6.25 µM | 3.125 µM and 3.13 µM | 6.25 µM | 12.5 µM | 1 | – | – | 6.25 µM | 1.26 | – | – | – | – | – | –
9 | RIGSILGALAKGLPTLISWIKNR-NH2 [A(A1R)] | 12.5 µM | 6.25 µM | 6.25 µM | 3.13 µM | 12.5 µM | 6.25 µM | 0.31 | – | – | 3.12 µM and 3.13 µM | 0.63 | – | – | – | – | – | 25.9%
10 | AIGSILGRLAKGLPTLISWIKNR-NH2 [A(A8R)] | 12.5 µM | 3.13 µM | 12.5 µM | 3.13 µM | 12.5 µM | 3.13 µM | 0.25 | – | – | 3.12 µM and 3.13 µM | 1 | 98.3% | – | – | – | – | 12.9%
11 | RIGSILGRLAKGLPTLISWIKNR-NH2 [A(A1R, A8R)] | 6.25 µM | 6.25 µM | 6.25 µM | 3.13 µM | 6.25 µM | 12.5 µM | 1 | – | – | 6.25 µM | 1 | – | – | – | – | – | –
